# Test results published in patent publication EP2857388A1, “Azoles containing sulfone” (Grünenthal GmbH, priority 2013, dated 2015).
# Target: T1, human B1R (Homo sapiens, UniProt P46663)
# T1 construct: expressed in transfected cells; host or cells: CHO K1 cells (Chinese Hamster Ovary), stably transfected
# T1 sequence (P46663 1-353): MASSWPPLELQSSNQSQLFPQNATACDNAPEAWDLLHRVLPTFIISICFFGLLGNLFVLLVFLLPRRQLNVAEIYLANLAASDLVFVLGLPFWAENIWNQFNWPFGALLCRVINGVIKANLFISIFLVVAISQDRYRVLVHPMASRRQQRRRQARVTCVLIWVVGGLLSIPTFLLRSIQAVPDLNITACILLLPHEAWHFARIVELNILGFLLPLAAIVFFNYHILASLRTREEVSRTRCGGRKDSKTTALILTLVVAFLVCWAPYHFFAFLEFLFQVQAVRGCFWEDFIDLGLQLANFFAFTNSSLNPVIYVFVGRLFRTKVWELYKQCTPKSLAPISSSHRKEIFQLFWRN
# Test: Functional assay at bradykinin receptor 1 (B1R): Ca2+ fluorescence (Fluo-4) in FLIPR/Novostar, antagonist mode
# Assay type: cell-based
# Settings: test substance 10 µM; CHO K1 cells stably transfected with human B1R gene (hB1R-Zellen); agonist Lys-Des-Arg9-Bradykinin at EC80; % inhibition relative to maximal achievable inhibition; read-out: % Inhibierung (human B1R) bei 10 µM
# Experimental: Die agonistische bzw. antagonistische Wirkung von Substanzen kann am Bradykinin Rezeptor 1 (B1R) der Spezies Mensch und Ratte mit ektopisch exprimierenden Zelllinien (CHO K1 Zellen) und mit Hilfe eines Ca^2+-sensitiven Farbstoffs (Fluo-4) im Fluorescent Imaging Plate Reader (FLIPR) quantifiziert werden. Die Angabe in % Aktivierung wird bezogen auf das Ca^2+-Signal nach Zugabe von Lys-Des-Arg^9-Bradykinin ([…]), bzw. Des-Arg^9-Bradykinin (100 nM). Antagonisten führen zu einer Unterdrückung des Ca^2+-Einstroms nach der Zugabe des Agonisten. Angegeben werden % Inhibition im Vergleich zu der maximal erreichbaren Inhibition.
# Die agonistische bzw. antagonistische Wirkung von Substanzen kann am Bradykinin Rezeptor 1 (B1R) der Spezies Mensch und Ratte mit folgendem Assay bestimmt werden. Gemäß diesem Assay wird der intrazelluläre Ca^2+-Anstieg nach Gabe eines B1 R Agonisten mit Hilfe eines Ca^2+-sensitiven Farbstoffs (Typ Fluo-4, Molecular Probes Europe BV, Leiden NL) im Fluorescent Imaging Plate Reader (FLIPR, Molecular Devices, Sunnyvale, USA) und/oder im Novostar (BMG Labtech GmbH, Offenburg, DE) quantifiziert.
# Es werden Chinese Hamster Ovary Zellen (CHO K1 Zellen) verwendet, die stabil mit dem humanen B1 R-Gen (hB1R-Zellen) bzw. dem B1 R-Gen der Ratte (rB1R-Zellen) transfiziert sind. Für funktionelle Untersuchungen werden diese Zellen auf schwarze 96-Loch-Platten mit klarem Boden (BD Biosciences, Heidelberg, DE oder Greiner, Frickenhausen, DE) in einer Dichte von 20.000 - 35.000 Zellen/Loch ausplattiert. Über Nacht werden die Zellen bei 37°C und 5 % CO2 in Kulturmedium (hB1 R-Zellen: Nutrient Mixture Ham's F12, Gibco Invitrogen GmbH, Karlsruhe, Deutschland oder DMEM, Sigma-Aldrich, Taufkirchen, Deutschland; rB1R-Zellen: D-MEM/F12, Gibco Invitrogen GmbH, Karlsruhe, DE) mit 10 Vol-% FBS (Fetal bovine serum, Gibco Invitrogen GmbH, Karlsruhe, DE oder PAN Biotech GmbH, Aidenbach, DE) belassen. Am folgenden Tag werden die Zellen mit 2,13 µM Fluo-4 (Molecular Probes Europe BV, Leiden, NL) in HBSS-Puffer (Hank's buffered saline solution, Gibco Invitrogen GmbH, Karlsruhe, DE) mit 2,5 mM Probenecid (Sigma-Aldrich, Taufkirchen, DE) und 10 mM HEPES (Sigma-Aldrich, Taufkirchen, DE) für 60 min bei 37°C beladen. Anschließend werden die Platten 2 x mit HBSS-Puffer gewaschen und mit HBSS-Puffer versetzt, der zusätzlich 0,1 % BSA (bovines Serumalbumin; Sigma-Aldrich, Taufkirchen, Deutschland), 5,6 mM Glucose und 0,05 % Gelatine (Merck KGaA, Darmstadt, DE) enthält. Nach einer weiteren Inkubation von 20 Minuten bei RT werden die Platten zur Ca^2+-Messung im FLIPR oder Novostar eingesetzt. Alternativ wird mit Puffer A (15 mM HEPES, 80 mM NaCl, 5 mM KCI, 1,2 mM CaCl2, 0,7 mM MgSO4, 2g/L Glucose, 2,5 mM Probenecid) gewaschen und mit Puffer A versetzt mit 2,5 µM Fluo-4 und 0,025 % Pluronic F127 (Sigma-Aldrich, Taufkirchen, DE) beladen. Danach werden die Zellen 2 x mit Puffer A gewaschen und für 30 Minuten mit Puffer A, der zusätzlich 0,05 % BSA und 0,05 % Gelatine enthält bei RT inkubiert und danach zur Ca^2+-Messung im FLIPR oder Novostar eingesetzt.
# Die Ca^2+-abhängige Fluoreszenz wird dabei vor und nach Zugabe von Substanzen gemessen (λex = 488 nm, λem = 540 nm). Die Quantifizierung erfolgt durch die Messung der höchsten Fluoreszenzintensität (FC, Fluorescence Counts) über die Zeit.
# Das FLIPR-Protokoll besteht aus 2 Substanzzugaben, die im FLIPR pipettiert werden. Bei Messungen im Novostar wird nur die zweite Substanzzugabe im Gerät pipettiert. Beide Geräte messen die Fluoreszenzintensität über die Zeit. Zunächst werden Testsubstanzen (10 µM) auf die Zellen pipettiert und der intrazelluläre Ca^2+-Anstieg mit der Kontrolle (hB1 R: Lys-Des-Arg^9-Bradykinin >= 50 nM; rB1 R: Des-Arg^9-Bradykinin >= 1 µM) verglichen. Daraus ergibt sich die Angabe in % Aktivierung bezogen auf das Ca^2+-Signal nach Zugabe von Lys-Des-Arg^9-Bradykinin (>= 50 nM), bzw. Des-Arg^9-Bradykinin (>=1 µM). Nach 6-20 Minuten Inkubation werden Lys-Des-Arg^9-Bradykinin (hB1 R) bzw. […]
row,SMILES,inhibition at 10 µM
1,"CN(C)C1CCC(NC(=O)Cc2nc(CS(=O)(=O)c3ccc(Cl)c(Cl)c3)no2)CC1 (centres unmarked) [CC-50, 2-[3-[[(3,4-Dichlorphenyl)sulfonyl]-methyl]-[1,2,4]oxadiazol-5-yl]-N-(4-dimethylamino-cyclohexyl)-acetamid]",54%
2,"COc1cc(C)c(S(=O)(=O)Cc2nc(CC(=O)NC3CCNCC3(C)C)no2)c(C)c1 (centres unmarked) [CC-52, N-(3,3-Dimethyl-piperidin-4-yl)-2-[5-[[(4-methoxy-2,6-dimethyl-phenyl)sulfonyl]-methyl]-[1,2,4]oxa-diazol-3-yl]-acetamid]",100%
3,"O=C(Cc1nc(CS(=O)(=O)c2cccc(Cl)c2Cl)no1)NC1CCNCC1 [CC-54, 2-[3-[[(2,3-Dichlor-phenyl)sulfonyl]-methyl]-[1,2,4]oxadiazol-5-yl]-N-piperidin-4-yl-acetamid]",52%
4,"Cc1cc(S(=O)(=O)Cc2noc(CC(=O)NC3CCC(NC4CC4)CC3(C)C)n2)c(C)cc1Cl (centres unmarked) [CC-57, 2-[3-[[(4-Chlor-2,5-dimethyl-phenyl)sulfonyl]-methyl]-[1,2,4]oxadiazol-5-yl]-N-[4-(cyclopropyl-amino)-2,2-dimethyl-cyclohexyl]-acetamid]",100%
5,"CN(C)C1CCC(NC(=O)Cc2nc(CS(=O)(=O)c3cccc(Cl)c3Cl)no2)CC1 (centres unmarked) [CC-59, 2-[3-[[(2,3-Dichlor-phenyl)sulfonyl]-methyl]-[1,2,4]oxadiazol-5-yl]-N-(4-dimethylamino-cyclohexyl)-acetamid]",63%
6,"Cc1cc(S(=O)(=O)Cc2noc(CC(=O)NC3CCC(N4CCCC4)CC3)n2)c(C)cc1Cl (centres unmarked) [CC-70, 2-[3-[[(4-Chlor-2,5-dimethyl-phenyl)sulfonyl]-methyl]-[1,2,4]oxadiazol-5-yl]-N-(4-pyrrolidin-1-yl-cyclohexyl)-acetamid]",93%
7,"O=C(Cc1nc(CS(=O)(=O)c2cccc(Cl)c2Cl)no1)NC1CCC(N2CCCC2)CC1 (centres unmarked) [CC-71, 2-[3-[[(2,3-Dichlor-phenyl)sulfonyl]-methyl]-[1,2,4]oxadiazol-5-yl]-N-(4-pyrrolidin-1-yl-cyclohexyl)-acetamid]",73%
8,"COCCN1CCC(NC(=O)Cc2nc(CS(=O)(=O)c3cccc(Cl)c3Cl)no2)C(C)(C)C1 (centres unmarked) [CC-72, 2-[3-[[(2,3-Dichlor-phenyl)sulfonyl]-methyl]-[1,2,4]oxadiazol-5-yl]-N-[1-(2-methoxy-ethyl)-3,3-di-methyl-piperidin-4-yl]-acetamid]",60%
9,"COCCN1CCC(NC(=O)Cc2nc(CS(=O)(=O)c3cc(C)c(Cl)cc3C)no2)C(C)(C)C1 (centres unmarked) [CC-77, 2-[3-[[(4-Chlor-2,5-dimethyl-phenyl)sulfonyl]-methyl]-[1,2,4]oxadiazol-5-yl]-N-[1-(2-methoxy-ethyl)-3,3-dimethyl-piperidin-4-yl]-acetamid]",80%
10,"Cc1cc(S(=O)(=O)Cc2noc(CC(=O)NC3CCC(c4ccncc4)CC3(C)C)n2)c(C)cc1Cl (centres unmarked) [CC-80, 2-[3-[[(4-Chlor-2,5-dimethyl-phenyl)sulfonyl]-methyl]-[1,2,4]oxadiazol-5-yl]-N-(2,2-dimethyl-4-pyridin-4-yl-cyclohexyl)-acetamid]",99%
11,"Cc1cc(S(=O)(=O)Cc2noc(CC(=O)NC3CCC(N(C)C)CC3)n2)c(C)cc1Cl (centres unmarked) [CC-81, 2-[3-[[(4-Chlor-2,5-dimethyl-phenyl)sulfonyl]-methyl]-[1,2,4]oxadiazol-5-yl]-N-(4-dimethylamino-cyclohexyl)-acetamid]",79%
12,"COc1cc(C)c(S(=O)(=O)Cc2nnc(CC(=O)N(C)C3CCNCC3(C)C)o2)c(C)c1 (centres unmarked) [CC-88, N-(3,3-Dimethyl-piperidin-4-yl)-2-[5-[[(4-methoxy-2,6-dimethyl-phenyl)sulfonyl]-methyl]-[1,3,4]oxadiazol-2-yl]-N-methyl-acetamid]",97%
13,"Cc1cccc(Cl)c1S(=O)(=O)Cc1noc(CC(=O)NC2CCNCC2)n1 [CC-90, 2-[3-[[(2-Chlor-6-methyl-phenyl)sulfonyl]-methyl]-[1,2,4]oxadiazol-5-yl]-N-piperidin-4-yl-acetamid]",72%
14,"Cc1cccc(Cl)c1S(=O)(=O)Cc1noc(CC(=O)NC2CCC(N3CCCC3)CC2(C)C)n1 (centres unmarked) [CC-91, 2-[3-[[(2-Chlor-6-methyl-phenyl)sulfonyl]-methyl]-[1,2,4]oxadiazol-5-yl]-N-(2,2-dimethyl-4-pyrrolidin-1-yl-cyclohexyl)-acetamid]",97%

# The next lines start with the values.
row,inhibition at 10 µM,SMILES
1,62%,"CC(=O)N1CCC(NC(=O)Cc2nc(CS(=O)(=O)c3cccc(Cl)c3Cl)no2)C(C)(C)C1 (centres unmarked) [CC-47, N-(1-Acetyl-3,3-dimethyl-piperidin-4-yl)-2-[3-[[(2,3-dichlor-phenyl)sulfonyl]-methyl]-[1,2,4]oxa-diazol-5-yl]-acetamid]"
2,81%,"CN1CCN(C2CCC(NC(=O)Cc3nc(CS(=O)(=O)c4cccc(Cl)c4Cl)no3)C(C)(C)C2)CC1 (centres unmarked) [CC-48, 2-[3-[[(2,3-Dichlor-phenyl)sulfonyl]-methyl]-[1,2,4]oxadiazol-5-yl]-N-[2,2-dimethyl-4-(4-methyl-piperazin-1-yl)-cyclohexyl]-acetamid]"
3,100%,"CC1(C)CC(N2CCCC2)CCC1NC(=O)Cc1nc(CS(=O)(=O)c2ccc(Cl)c(Cl)c2)no1 (centres unmarked) [CC-53, 2-[3-[[(3,4-Dichlorphenyl)sulfonyl]-methyl]-[1,2,4]oxadiazol-5-yl]-N-(2,2-dimethyl-4-pyrrolidin-1-yl-cyclohexyl)-acetamid]"
4,54%,"Cc1cc(S(=O)(=O)Cc2noc(CC(=O)NC3CCNCC3(C)C)n2)c(C)cc1Cl (centres unmarked) [CC-62, 2-[3-[[(4-Chlor-2,5-dimethyl-phenyl)sulfonyl]-methyl]-[1,2,4]oxadiazol-5-yl]-N-(3,3-dimethyl-piperidin-4-yl)-acetamid]"
5,81%,"COc1cc(C)c(S(=O)(=O)Cc2nnc(CC(=O)NC3CCN(C(C)=O)CC3(C)C)o2)c(C)c1 (centres unmarked) [CC-69, N-(1-Acetyl-3,3-dimethyl-piperidin-4-yl)-2-[5-[[(4-methoxy-2,6-dimethyl-phenyl)sulfonyl]-methyl]-[1,3,4]oxadiazol-2-yl]-acetamid]"
6,100%,"COc1cc(C)c(S(=O)(=O)Cc2nnc(CC(=O)NC3CCC(N4CCN(C)CC4)CC3(C)C)o2)c(C)c1 (centres unmarked) [CC-86, N-[2,2-Dimethyl-4-(4-methyl-piperazin-1-yl)-cyclohexyl]-2-[5-[[(4-methoxy-2,6-dimethylphenyl)sulfonyl)-methyl]-[1,3,4]oxadiazol-2-yl]-acetamid]"
